Experiments:
[1] = target: T1, Human Indoleamine 2,3-dioxygenase (IDO) (Homo sapiens, UniProt P14902); test: Human IDO enzymatic assay (kynurenine level); format: biochemical; details: 6 nM IDO, 10 μM L-Trp; geometric mean; read-out: IDO1 GMean: IC50 (μM) (Biochemical Assay)
T1 construct: His tag (N); made in house; host or cells: E. coli
In short: (§1)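 Compound is mixed with His-tagged enzyme from E. coli in pH 6.5 phosphate buffer containing ascorbate, methylene blue and catalase, at room temperature. IDO uses 6 nM enzyme and 10 μM Trp for 20 min. TDO uses 1 nM enzyme and 350 μM Trp for 70 min. TCA stops the reaction, and IC50 is derived from kynurenine levels.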

[2] = target: T2, Human Tryptophan 2,3-dioxygenase (TDO) (Homo sapiens, UniProt P48775); test: Human TDO enzymatic assay (kynurenine level); format: biochemical; details: 1 nM TDO, 350 μM L-Trp; geometric mean; read-out: TDO GMean: IC50 (μM) (Biochemical Assay)
T2 construct: His tag (N); made in house; host or cells: E. coli
In short: as §1

[3] = target: T3, human IDO (IDO1-expressing HEK293 cells) (Homo sapiens, UniProt P14902); test: Cell based kynurenine assay, IDO1-expressing HEK293 cell clones; details: IDO1-expressing HEK293 cells, 24 hours, geometric mean; read-out: HEK293 IDO1 Kynurenine GMean IC50 (μM) (Cellular Assay)
T3 construct: expressed in transfected cells
In short: (§2)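 Cellular IDO1 and TDO activity is followed as kynurenine released by stably transfected HEK293 clones over 24 h with test compound. Controls are DMSO-treated cells and media alone.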

[4] = target: T4, human TDO (TDO-expressing HEK293 cells) (Homo sapiens, UniProt P48775); test: Cell based kynurenine assay, TDO-expressing HEK293 cell clones; details: TDO-expressing HEK293 cells, 24 hours, geometric mean; read-out: HEK293 TDO Kynurenine GMean IC50 (μM) (Cellular Assay)
T4 construct: expressed in transfected cells
In short: as §2

T4 sequence (P48775 whole entry): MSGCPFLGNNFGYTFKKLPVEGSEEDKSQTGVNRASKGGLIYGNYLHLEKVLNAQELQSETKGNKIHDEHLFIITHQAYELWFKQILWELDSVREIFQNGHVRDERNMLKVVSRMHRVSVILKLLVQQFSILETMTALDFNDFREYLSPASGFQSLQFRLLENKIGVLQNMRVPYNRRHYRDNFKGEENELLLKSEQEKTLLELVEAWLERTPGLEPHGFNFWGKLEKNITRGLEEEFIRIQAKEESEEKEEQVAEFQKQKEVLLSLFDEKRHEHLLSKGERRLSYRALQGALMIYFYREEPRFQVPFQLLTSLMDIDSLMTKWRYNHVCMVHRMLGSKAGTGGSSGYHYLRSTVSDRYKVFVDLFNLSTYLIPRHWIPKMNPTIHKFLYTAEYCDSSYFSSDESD
T2 sequence (P48775 whole entry): as above
T3 sequence (P14902 whole entry): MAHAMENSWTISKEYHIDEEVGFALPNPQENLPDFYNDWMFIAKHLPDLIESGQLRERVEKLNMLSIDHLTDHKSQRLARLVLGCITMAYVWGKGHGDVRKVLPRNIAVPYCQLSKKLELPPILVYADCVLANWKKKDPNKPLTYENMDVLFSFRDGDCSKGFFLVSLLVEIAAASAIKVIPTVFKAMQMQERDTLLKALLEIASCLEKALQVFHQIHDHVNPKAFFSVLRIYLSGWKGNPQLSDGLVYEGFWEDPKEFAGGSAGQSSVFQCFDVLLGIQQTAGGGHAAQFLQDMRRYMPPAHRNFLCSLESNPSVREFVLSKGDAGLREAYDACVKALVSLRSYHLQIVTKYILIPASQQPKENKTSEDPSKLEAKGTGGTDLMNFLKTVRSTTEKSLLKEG
T1 sequence (P14902 whole entry): as above

SMILES | IC50 [1] [µM] | IC50 [2] [µM] | IC50 [3] [µM] | IC50 [4] [µM]
CC(C)(C1CCN(C(=O)C2CC2)CC1)[C@H](O)c1c(F)c(Cl)cc2cn[nH]c12 [Compound P-0504, (S)-(4-(1-(5-chloro-6-fluoro-1H-indazol-7-yl)-1-hydroxy-2-methylpropan-2-yl)piperidin-1-yl)(cyclopropyl) methanone] | 0.0001 to 10 | 0.0001 to 10 | 0.0001 to 10 | 0.0001 to 10
CC(C)(C1CCN(C(=O)CC#N)CC1)[C@H](O)c1c(F)c(Cl)cc2cn[nH]c12 [Compound P-0505, (S)-3-(4-(1-(5-chloro-6-fluoro-1H-indazol-7-yl)-1-hydroxy-2-methylpropan-2-yl)piperidin-1-yl)-3-oxopropanenitrile] | 0.0001 to 10 | 0.0001 to 10 | 0.0001 to 10 | 0.0001 to 10
COCC(=O)N1CCC(C(C)(C)[C@H](O)c2c(F)c(Cl)cc3cn[nH]c23)CC1 [Compound P-0506, (S)-1-(4-(1-(5-chloro-6-fluoro-1H-indazol-7-yl)-1-hydroxy-2-methylpropan-2-yl)piperidin-1-yl)-2-methoxyethan-1-one] | 0.0001 to 10 | 0.0001 to 10 | 0.0001 to 10 | 0.0001 to 10
CC(C)(C1CCN(C(=O)C2CCOCC2)CC1)[C@H](O)c1c(F)c(Cl)cc2cn[nH]c12 [Compound P-0507, (S)-(4-(1-(5-chloro-6-fluoro-1H-indazol-7-yl)-1-hydroxy-2-methylpropan-2-yl)piperidin-1-yl)(tetrahydro-2H-pyran-4-yl)methanone] | 0.0001 to 10 | 0.0001 to 10 | 0.0001 to 10 | 0.0001 to 10
CNC(=O)N1CCC(C(C)(C)[C@H](O)c2c(F)c(Cl)cc3cn[nH]c23)CC1 [Compound P-0508, (S)-4-(1-(5-chloro-6-fluoro-1H-indazol-7-yl)-1-hydroxy-2-methylpropan-2-yl)-N-methylpiperidine-1-carboxamide] | 0.0001 to 10 | 0.0001 to 10 | 0.0001 to 10 | 0.0001 to 10
CC(C)(C1CCN(C(=O)NC2CC2)CC1)[C@H](O)c1c(F)c(Cl)cc2cn[nH]c12 [Compound P-0509, (S)-4-(1-(5-chloro-6-fluoro-1H-indazol-7-yl)-1-hydroxy-2-methylpropan-2-yl)-N-cyclopropylpiperidine-1-carboxamide] | 0.0001 to 10 | 0.0001 to 10 | 0.0001 to 10 | 0.0001 to 10
COCCNC(=O)N1CCC(C(C)(C)[C@H](O)c2c(F)c(Cl)cc3cn[nH]c23)CC1 [Compound P-0510, (S)-4-(1-(5-chloro-6-fluoro-1H-indazol-7-yl)-1-hydroxy-2-methylpropan-2-yl)-N-(2-methoxyethyl) piperidine-1-carboxamide] | 0.0001 to 10 | 0.0001 to 10 | 0.0001 to 10 | 0.0001 to 10
CC(C)(C1CCN(C(=O)NCC(F)(F)F)CC1)[C@H](O)c1c(F)c(Cl)cc2cn[nH]c12 [Compound P-0511, (S)-4-(1-(5-chloro-6-fluoro-1H-indazol-7-yl)-1-hydroxy-2-methylpropan-2-yl)-N-(2,2,2-trifluoroethyl) piperidine-1-carboxamide] | 0.0001 to 10 | 0.0001 to 10 | 0.0001 to 10 | 0.0001 to 10
CC(C)(C1CCN(C(=O)Nc2ccc(F)cc2)CC1)[C@H](O)c1c(F)c(Cl)cc2cn[nH]c12 [Compound P-0512, (S)-4-(1-(5-chloro-6-fluoro-1H-indazol-7-yl)-1-hydroxy-2-methylpropan-2-yl)-N-(4-fluorophenyl) piperidine-1-carboxamide] | 0.0001 to 10 | 0.0001 to 10 | 0.0001 to 10 | 0.0001 to 10
CCOC(=O)NC(=O)N1CCC(C(C)(C)[C@H](O)c2c(F)c(Cl)cc3cn[nH]c23)CC1 [Compound P-0513, ethyl (S)-(4-(1-(5-chloro-6-fluoro-1H-indazol-7-yl)-1-hydroxy-2-methylpropan-2-yl)piperidine-1-carbonyl)carbamate] | 0.0001 to 10 | 0.0001 to 10 | 0.0001 to 10 | 0.0001 to 10
CC(C)(C1CCN(C(=O)NC(=O)c2ccccc2)CC1)[C@H](O)c1c(F)c(Cl)cc2cn[nH]c12 [Compound P-0514, (S)-N-benzoyl-4-(1-(5-chloro-6-fluoro-1H-indazol-7-yl)-1-hydroxy-2-methylpropan-2-yl)piperidine-1-carboxamide] | 0.0001 to 10 | 0.0001 to 10 | 0.0001 to 10 | 0.0001 to 10
CC(C)(C1CCN(S(C)(=O)=O)CC1)[C@H](O)c1c(F)c(Cl)cc2cn[nH]c12 [Compound P-0515, (S)-1-(5-chloro-6-fluoro-1H-indazol-7-yl)-2-methyl-2-(1-(methylsulfonyl)piperidin-4-yl) propan-1-ol] | 0.0001 to 10 | 0.0001 to 10 | 0.0001 to 10 | 0.0001 to 10
CC(C)(C)OC(=O)N1CCC(C(F)(F)[C@H](O)c2cc(Cl)cc3cn[nH]c23)CC1 [Compound P-0516, tert-butyl (R)-4-(2-(5-chloro-1H-indazol-7-yl)-1,1-difluoro-2-hydroxyethyl) piperidine-1-carboxylate] | 0.0001 to 10 | 0.0001 to 10 | 0.0001 to 10 | 0.0001 to 10
CC(C)(C)OC(=O)N1CCC(C(F)(F)[C@@H](O)c2cc(Cl)cc3cn[nH]c23)CC1 [Compound P-0517, tert-butyl (S)-4-(2-(5-chloro-1H-indazol-7-yl)-1,1-difluoro-2-hydroxyethyl) piperidine-1-carboxylate] | 0.0001 to 10 | > 200 | > 10 | > 10
CC(C)(C1CCN(C(=O)Cc2ccc(Cl)c(F)c2)CC1)[C@H](O)c1cc(Cl)cc2cn[nH]c12 [Compound P-0518, (S)-1-(4-(1-(5-chloro-1H-indazol-7-yl)-1-hydroxy-2-methylpropan-2-yl)piperidin-1-yl)-2-(4-chloro-3-fluorophenyl) ethan-1-one] | 0.0001 to 10 | 0.0001 to 10 | 0.0001 to 10 | 0.0001 to 10

More lines, now with the values ahead:

IC50 [1] [µM] | IC50 [2] [µM] | IC50 [3] [µM] | IC50 [4] [µM] | SMILES
0.0001 to 10 | 0.0001 to 10 | 0.0001 to 10 | 0.0001 to 10 | O=C(Cc1ccc(Cl)nc1)N1CCC(C(F)(F)C(O)c2cc(Cl)cc3cn[nH]c23)CC1 (centres unmarked) [Compound P-0495, 1-(4-(2-(5-chloro-1H-indazol-7-yl)-1,1-difluoro-2-hydroxyethyl)piperidin-1-y1)-2-(6-chloropyridin-3-yl)ethan-1-one]
0.0001 to 10 | 0.0001 to 10 | 0.0001 to 10 | 0.0001 to 10 | COc1ccc(CC(=O)N2CCC(C(F)(F)C(O)c3cc(Cl)cc4cn[nH]c34)CC2)cc1 (centres unmarked) [Compound P-0496, 1-(4-(2-(5-chloro-1H-indazol-7-yl)-1,1-difluoro-2-hydroxyethyl)piperidin-1-yl)-2-(4-methoxyphenyl) ethan-1-one]
0.0001 to 10 | 0.0001 to 10 | 0.0001 to 10 | 0.0001 to 10 | CC(C)(C1CCN(C(=O)CN2CCS(=O)(=O)CC2)CC1)[C@H](O)c1cc(Cl)cc2cn[nH]c12 [Compound P-0497, (S)-1-(4-(1-(5-chloro-1H-indazol-7-yl)-1-hydroxy-2-methylpropan-2-yl)piperidin-l-yl)-2-(1,1-dioxidothiomorpholino) ethan-1-one]
0.0001 to 10 | 0.0001 to 10 | 0.0001 to 10 | 0.0001 to 10 | CC(C)(C1CCN(C(=O)C2CCC2)CC1)[C@H](O)c1cc(Cl)cc2cn[nH]c12 [Compound P-0498, (S)-(4-(1-(5-chloro-1H-indazol-7-yl)-1-hydroxy-2-methylpropan-2-yl)piperidin-1-yl)(cyclobutyl)methanone]
0.0001 to 10 | 0.0001 to 10 | 0.0001 to 10 | 0.0001 to 10 | CC(C)(C1CCN(C(=O)NCCO)CC1)[C@H](O)c1cc(Cl)cc2cn[nH]c12 [Compound P-0499, (S)-4-(1-(5-chloro-1H-indazol-7-yl)-1-hydroxy-2-methylpropan-2-yl)-N-(2-hydroxyethyl)piperidine-1-carboxamide]
0.0001 to 10 | 0.0001 to 10 | 0.0001 to 10 | 0.0001 to 10 | CC(C)(C1CCN(C(=O)CN2CCOCC2)CC1)[C@H](O)c1cc(Cl)cc2cn[nH]c12 [Compound P-0501, (S)-1-(4-(1-(5-chloro-1H-indazol-7-yl)-1-hydroxy-2-methylpropan-2-yl)piperidin-1-yl)-2-morpholinoethan-1-one]
0.0001 to 10 | 0.0001 to 10 | 0.0001 to 10 | 0.0001 to 10 | CC(C)(C1CCN(C(=O)CC2CCS(=O)(=O)CC2)CC1)[C@H](O)c1cc(Cl)cc2cn[nH]c12 [Compound P-0502, (S)-1-(4-(1-(5-chloro-1H-indazol-7-yl)-1-hydroxy-2-methylpropan-2-yl)piperidin-1-yl)-2-(1,1-dioxidotetrahydro-2H-thiopyran-4-yl)ethan-1-one]
0.0001 to 10 | 0.0001 to 10 | 0.0001 to 10 | 0.0001 to 10 | CC(C)(C1CCN(C(=O)Nc2ccc(C#N)cc2)CC1)[C@H](O)c1c(F)c(Cl)cc2cn[nH]c12 [Compound P-0503, (S)-4-(1-(5-chloro-6-fluoro-1H-indazol-7-yl)-1-hydroxy-2-methylpropan-2-yl)-N-(4-cyanophenyl) piperidine-1-carboxamide]

— patent US10508085B2, “Compounds and methods for IDO and TDO modulation, and indications therefor” (Plexxikon Inc., priority 2016, dated 2019)
